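96-well plates; 48 h exposure; 5 concentrations. Endpoints by linear interpolation between flanking doses. Not reached: highest tested concentration assigned. GI50: concentration for 50% inhibition of growth. TGI is the concentration that stops growth completely.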
How the values were obtained:
Test in all cases: DTP human tumour cell line panel, 48 h
SR leukemia = test system: SR leukemia
MDA-MB-435 = test system: MDA-MB-435
NCI-H460 lung = test system: NCI-H460 lung
NCI/ADR-RES ovarian = test system: NCI/ADR-RES ovarian
RXF 393 renal = test system: RXF 393 renal
SK-MEL-5 melanoma = test system: SK-MEL-5 melanoma
HS 578T breast = test system: HS 578T breast
HT29 colon = test system: HT29 colon
SW-620 colon = test system: SW-620 colon
SK-OV-3 ovarian = test system: SK-OV-3 ovarian

Structure (SMILES) | TGI (SR leukemia) [µM] | TGI (MDA-MB-435) [µM] | TGI (NCI-H460 lung) [µM] | TGI (NCI/ADR-RES ovarian) [µM] | TGI (RXF 393 renal) [µM] | TGI (SK-MEL-5 melanoma) [µM] | TGI (HS 578T breast) [µM] | TGI (HT29 colon) [µM] | TGI (SW-620 colon) [µM] | TGI (SK-OV-3 ovarian) [µM] | GI50 (SR leukemia) [µM] | GI50 (MDA-MB-435) [µM] | GI50 (NCI-H460 lung) [µM] | GI50 (NCI/ADR-RES ovarian) [µM] | GI50 (RXF 393 renal) [µM] | GI50 (SK-MEL-5 melanoma) [µM] | GI50 (HS 578T breast) [µM] | GI50 (HT29 colon) [µM] | GI50 (SW-620 colon) [µM] | GI50 (SK-OV-3 ovarian) [µM]
C=C(C)C(=O)O[C@H]1CC2(CO)O[C@@H]2CC/C(COC(C)=O)=C/C2OC(=O)C(=C)[C@@H]21 (some centres not stated) | 43.3 | > 61.3 | > 100 | > 100 | 26.4 | > 100 | > 100 | > 100 | 54.7 | > 100 |  |  |  |  |  |  |  |  |  | 
Nc1cc2ncnc(Nc3cccc(Br)c3)c2cn1 | > 100 | > 100 | > 100 | > 100 | > 100 | > 100 | > 100 | > 100 | > 100 | 74.4 |  |  |  |  |  |  |  |  |  | 
CCOC(=O)NC(OCc1ccccc1)(C(=O)OC)C(F)(F)F (configuration not stated) | > 100 | > 100 | > 100 | > 100 | > 100 | > 100 | > 100 | > 100 | > 100 | > 100 |  |  |  |  |  |  |  |  |  | 
Cc1cc2nc3c(N)nn(CCN(C)C)c3nc2cc1C | > 100 | > 100 | > 100 | > 100 | > 100 | > 100 | > 100 | > 100 | > 100 | > 100 |  |  |  |  |  |  |  |  |  | 
CC(=O)Nc1nc(C)c(S(=O)(=O)NC(=O)N2c3ccccc3CCc3ccccc32)s1 | > 100 | > 100 | > 100 | > 100 | > 100 | > 100 | > 100 | > 100 | > 100 | > 100 |  |  |  |  |  |  |  |  |  | 
O=c1[nH]nc(N/N=C\c2ccc(Cl)cc2)c2ccccc12 | 58.2 | 32.4 | 47.9 | 39 | 56.2 | 39.3 | 62.7 | > 100 | > 100 | 34.6 |  |  |  |  |  |  |  |  |  | 
O=c1cnc2cc3ccccc3cc2[nH]1 | > 100 | > 100 | > 100 | > 100 | > 100 | > 100 | > 100 | > 100 | > 100 | > 100 |  |  |  |  |  |  |  |  |  | 
CCn1c(SCc2nnc(Nc3ccccc3)s2)nc2ccccc2c1=O | 61.4 | > 100 | 4.77 | 10.9 | 19.1 | 32.5 | 8.56 | 12.5 | > 68.3 | 7.66 |  |  |  |  |  |  |  |  |  | 
CCOC(=O)c1nc2ccccc2nc1Nc1ccc(F)cc1 | > 100 | > 100 | > 100 | > 100 | 26.7 | > 100 | > 84.8 | > 100 | > 100 | 37.7 |  |  |  |  |  |  |  |  |  | 
CCCC(CC)c1cc(O)c(O)cc1C(CC)CCC (configuration not stated) | > 10 | > 10 | > 10 | > 10 | > 10 | > 10 | > 10 | > 10 | > 10 | > 10 |  |  |  |  |  |  |  |  |  | 
CCOC(=O)COC1=Nc2cc(OC)c(OC)c3nc(Cl)cc(c23)C1=O | > 21.5 | 2.93 | 39.3 | > 31.4 | 3.34 | 3.53 | > 20.6 | 6.37 | > 21.6 | 24.1 |  |  |  |  |  |  |  |  |  | 
COc1ccc(-c2cc(-c3ccc(OC)c(OC)c3)nc(SCCCC(=O)NO)n2)cc1 | 15.5 | 4.15 | 5.24 | 4.77 | 2.5 | 3.68 | 33 | > 100 | 10.7 | 4.93 | 0.552 | 1.27 | 0.842 | 0.977 | 0.587 | 1.82 | 1.91 | 1.87 | 0.906 | 1.45
COC(CC1(CCNc2ccccc2)C(=O)N(COCC[Si](C)(C)C)c2ccccc21)OC (configuration not stated) | > 100 | 38.5 | 34.4 | 39.6 | 29.4 | > 100 | 41.4 | 30 | > 55.3 | 30 |  |  |  |  |  |  |  |  |  | 
COc1ccc(C(=O)/C=C/c2ccc(OCCCOc3ccc(/C=C/C(=O)c4ccc(OC)c(OC)c4)cc3)cc2)cc1OC | > 100 | > 100 | > 100 | > 100 | > 100 | > 100 | > 100 | > 100 | > 100 | > 100 |  |  |  |  |  |  |  |  |  | 
CN1CCCC(OC(=O)c2cc3cc(CCl)ccc3oc2=O)C1 (configuration not stated) | 70.1 | 41.6 | 44.9 | 87 | 54.6 | 33.9 | 56.6 | 46.9 | 64.8 | > 100 |  |  |  |  |  |  |  |  |  | 
N#C[C@H]1C(=O)C(c2nc3ccccc3[nH]2)S[C@H]1c1ccccc1 (some centres not stated) | > 100 | 87.8 | > 100 | > 100 | 67.8 | > 100 | > 100 | > 100 | > 100 | > 100 |  |  |  |  |  |  |  |  |  | 
COCCN(C(=O)c1ccccc1)C1CCC(=O)c2[nH]c3ccccc3c21 (configuration not stated) | > 24.8 | 17.5 | 34.9 | 53.6 | 15.2 | 20.2 | > 75.5 | 24.3 | 23.3 | 29 |  |  |  |  |  |  |  |  |  | 
CCC(=O)Nc1ccc(N2C(=O)/C(=C/c3ccc(O)c(OC)c3)N=C2c2ccccc2)cc1 | > 100 | > 100 | > 100 | > 100 | 48.4 | 32.8 | > 100 | > 100 | > 100 | > 100 |  |  |  |  |  |  |  |  |  | 
CC1Cc2c(cc(N)nc2Br)NC1=O (configuration not stated) | > 100 | > 100 | > 100 | > 100 | > 100 | > 100 | > 100 | > 100 | > 100 | > 100 |  |  |  |  |  |  |  |  |  | 
CCCOC1OC(CS(=O)(=O)O)C(OC(C)=O)C(OC(C)=O)C1OC(C)=O (configuration not stated) | > 100 | > 100 | > 100 | > 100 | > 100 | > 100 | > 100 | > 100 | > 100 | > 100 |  |  |  |  |  |  |  |  |  | 
C#Cc1cccc(Nc2ncnc3cc(OCCOC)c(OCCOC)cc23)c1 | > 100 | > 100 | > 91.4 | > 100 | 34.9 | > 78.9 | 86.3 | > 100 | > 100 | 5.2 | 9.98 |  |  |  | 3.97 |  |  |  |  | 
COC(=O)NC(Nc1ccc(C)cc1)(C(F)(F)F)C(F)(F)F | > 100 | > 100 | > 100 | > 100 | 93.9 | > 100 | > 100 | > 100 | > 100 | > 100 |  |  |  |  |  |  |  |  |  | 
Cc1ccc(C2(N3CCOCC3)OC(C)(C)c3cccc4cccc2c34)cc1 (configuration not stated) | > 100 | 32.6 | 30.2 | 31.2 | 31.5 | 35.1 | 46 | 31.8 | 37 | 31.2 |  |  |  |  |  |  |  |  |  | 
CCCCN(CCCC)C1=Nc2ccccc2-n2c(nnc2C(=O)OCC)C1 | 56.3 | > 100 | 89.4 | > 100 | 77.4 | 38.5 | > 100 | > 100 | > 100 | > 100 |  |  |  |  |  |  |  |  |  | 
Cc1cn([C@@H]2C[C@](C)(CO)N(C)O2)c(=O)[nH]c1=O | > 100 | > 100 | > 100 | > 100 | > 100 | > 100 | > 100 | > 100 | > 100 | > 100 |  |  |  |  |  |  |  |  |  | 
CN(c1ccc(Cl)cc1)S(=O)(=O)c1ccccc1 | > 100 | > 100 | > 100 | > 100 | 62.3 | 47 | > 100 | > 100 | > 100 | > 100 |  |  |  |  |  |  |  |  |  | 
C=C(C)[C@@H]1CC[C@]2(C(=O)OC3OC(COC4OC(CO)C(OC5OC(C)C(O)C(O)C5O)C(O)C4O)C(O)C(O)C3O)CC[C@]3(C)[C@H](CC[C@@H]4[C@@]5(C)CC[C@H](O)[C@@](C)(CO)[C@@H]5CC[C@]43C)[C@@H]12 (some centres not stated) | > 4.48 | > 10 | 5.11 | > 10 | > 10 | > 8.46 | > 9.62 | > 10 | > 10 | > 8.62 |  |  |  |  |  |  |  |  |  | 

Source: PubChem BioAssay (NCI)
